Literature values as cited in patent publication US20120184751A1, “POLYMORPHIC FORM OF OLMESARTAN MEDOXOMIL” (RANBAXY LABORATORIES LIMITED, priority 2009, published 2012).

Conditions: 75% relative humidity at 40° C. for one month

SMILES: CCCc1nc(C(C)(C)O)c(C(=O)OCc2oc(=O)oc2C)n1Cc1ccc(-c2ccccc2-c2nnn[nH]2)cc1 [amorphous olmesartan medoxomil, 2,3-dihydroxy-2-butenyl-4-(1-hydroxy-1-methylethyl)-2-propyl-1-[p-(o-1H-tetrazol-5-ylphenyl)benzyl]imidazole-5-carboxylate, cyclic 2,3-carbonate]
- solid-state stability / form conversion on storage: converts into hydrated olmesartan medoxomil having crystalline appearance
